Patent publication US20050148523A1, “Method of treating HIV infection in atazanavir-resistant patients using a combination of atazanavir and another protease inhibitor” (priority 2003, published 2005)
Where two headings read alike, the source gives them in different places.

Legend:
[1] = tested on: clinical isolates exhibiting a wide array of PI resistance profiles; settings: cited from earlier work
[2] = tested on: HIV-1 in treatment naive patients; assay: Clinical study AI424-008/044, virological outcomes and resistance; format: in vivo, human; settings: study 008/044
Text: (§1) Study Population. Viral samples (baseline and on-treatment, where available) were obtained from patients who experienced virologic failure while enrolled in studies AI424-007/041 [12] (ATV+d4T and ddI), AI424-008/044 [13, 14] (ATV+d4T and 3TC) and AI424-034 [9] (ATV or EFV in combination with ZDV and 3TC). […] In general, virologic failure specimens were selected for further resistance evaluation only if they contained >1,000 copies/mL HIV-1 RNA and there was no indication that the specimen came from a patient at a time of transient non-adherence to study drug(s). […] For non-responders, samples from week 16 (or 24) were tested. Drug adherence was determined from pill counts of returned study medications at each scheduled visit.
(§2) ATV resistance was defined as ≧2-fold decrease in ATV susceptibility from baseline, a Fold Change (FC) of ≧2.5 (relative to the Nl4-3 reference strain), or evidence of an isoleucine (Ile) to leucine (Leu) change at amino acid residue 50 (I50L). Resistance levels for NFV and EFV were also defined as a FC reaching 2.5.

[3] = tested on: clinical isolates containing an I50L substitution (and their baseline isolates); assay: PhenoSense phenotypic susceptibility of clinical isolates from ATV-treated patients who developed I50L; format: cell-based, HIV-1
Text: as §1
Drug Susceptibility Assays. Clinical isolates were subjected to phenotypic (PhenoSense™) and genotypic (GeneSeq™) analysis by Virologic, Inc. as described elsewhere.

[4] = tested on: HIV-1 in treatment naive patients; assay: Clinical study AI424-034, virological outcomes and resistance; format: in vivo, human; settings: study 034
Text: as §1, §2

[5] = tested on: recombinant HIV-1 viruses (NL4-3, RF, LAI) in MT-2 cells; assay: MT-2 cell susceptibility assay of recombinant viruses; format: cell-based
Protocol: Cells and Viruses. MT-2 cells, HIV-1 RF, HIV1-LAI, and the HIV-1 NL4-3 proviral clones were obtained through the AIDS Research and Reference Reagent Program, National Institutes of Health. MT-2 cells were cultured in RPMI 1640 medium supplemented with 10% fetal bovine serum, 2 mM L-glutamine, and 10 mM Hepes buffer. HIV-1 viruses were generated by transient transfection of the proviral DNA into Human Embryonic Kidney 293 cells using Lipofectamine reagents (Gibco BRL). The viruses were harvested 72 hr post-transfection, amplified in MT-2 cells, and titered in the same cells using a virus yield assay.
Recombinant HIV-1 Variants and Chimeric NL4-3 Proviral Clones. HIV-1 strains with defined substitutions in the protease gene were generated by QuikChange® site-directed mutagenesis as recommended by the manufacturer (Stratagene). Recombinant NL4-3 and LAI proviral clones containing the wild-type and mutant protease genes from RF and clinical isolates were constructed by replacing the SseI/ApaI fragment of pNL4-3 with the appropriate SseI/ApaI protease fragments.
Recombinant viruses (generated separately from those made for PhenoSense assays) were tested in an MT-2 cell susceptibility assay at Bristol Myers Squibb. MT-2 cells were infected with recombinant viruses at a multiplicity of infection (MOI) of 0.005 50% tissue culture infective doses (TCID50)/cell followed by incubation in the presence or absence of serially diluted protease inhibitors for 4 to 7 days. Virus yields were quantified using a RT assay as previously described. The results from at least four independent experiments were used to calculate the EC50.

COC(=O)N[C@H](C(=O)N[C@@H](Cc1ccccc1)[C@@H](O)CN(Cc1ccc(-c2ccccn2)cc1)NC(=O)[C@@H](NC(=O)OC)C(C)(C)C)C(C)(C)C [ATV, atazanavir]
percentage of isolates remaining susceptible to ATV ([1]; isolates resistant to 1 PI): 88% | percentage of isolates remaining susceptible to ATV ([1]; isolates resistant to 2 PIs): 81% | percentage of isolates remaining susceptible to ATV ([1]; isolates resistant to 3 PIs): 34% | percentage of isolates remaining susceptible to ATV ([1]; isolates resistant to 4 PIs): 16% | percentage of isolates remaining susceptible to ATV ([1]; isolates resistant to 5 PIs): 5% | Virologic Failures (%) [2]: 24% | Virologic Failures, number [2]: 88 | median FC ([3]; I50L isolates, relative to NL4-3 reference strain): 9.6 fold | Susceptibility, Fold Change in EC50 relative to reference strain ([3]; Isolate with I50L 1): 3.5 Fold Change | Susceptibility, Fold Change in EC50 relative to reference strain ([3]; Isolate with I50L 2): 4.9 Fold Change | Susceptibility, Fold Change in EC50 relative to reference strain ([3]; Isolate with I50L 3): 5.2 Fold Change | Susceptibility, Fold Change in EC50 relative to reference strain ([3]; Isolate with I50L 4): 5.8 Fold Change | Susceptibility, Fold Change in EC50 relative to reference strain ([3]; Isolate with I50L 5): 6.7 Fold Change | Susceptibility, Fold Change in EC50 relative to reference strain ([3]; Isolate with I50L 6): 7.9 Fold Change | Susceptibility, Fold Change in EC50 relative to reference strain ([3]; Isolate with I50L 7): 8.6 Fold Change | Susceptibility, Fold Change in EC50 relative to reference strain ([3]; Isolate with I50L 8): 8.8 Fold Change | Susceptibility, Fold Change in EC50 relative to reference strain ([3]; Isolate with I50L 9): 9.5 Fold Change | Susceptibility, Fold Change in EC50 relative to reference strain ([3]; Isolate with I50L 10): 10 Fold Change | Susceptibility, Fold Change in EC50 relative to reference strain ([3]; Isolate with I50L 11): 11 Fold Change | Susceptibility, Fold Change in EC50 relative to reference strain ([3]; Isolate with I50L 12): 12 Fold Change | Susceptibility, Fold Change in EC50 relative to reference strain ([3]; Isolate with I50L 13): 13 Fold Change | Susceptibility, Fold Change in EC50 relative to reference strain ([3]; Isolate with I50L 14): 19 Fold Change | Susceptibility, Fold Change in EC50 relative to reference strain ([3]; Isolate with I50L 15): 22 Fold Change | Susceptibility, Fold Change in EC50 relative to reference strain ([3]; Isolate with I50L 16): 29 Fold Change | Susceptibility, Fold Change in EC50 relative to reference strain ([3]; Subject 076, Week 80): 9.5 Fold Change | Susceptibility, Fold Change in EC50 relative to reference strain ([3]; Subject 076, Week 92): 16 Fold Change | Susceptibility, Fold Change in EC50 relative to reference strain ([3]; Subject 100, Week 1.7): 1.5 Fold Change | Susceptibility, Fold Change in EC50 relative to reference strain ([3]; Subject 169, Week 0.1): 1.1 Fold Change | Susceptibility, Fold Change in EC50 relative to reference strain ([3]; Subject 169, Week 90): 12 Fold Change | Susceptibility, Fold Change in EC50 relative to reference strain ([3]; Subject 169, Week 102): 9.2 Fold Change | Subceptibility, Fold Change in EC50 relative to reference strain ([3]; Subject 169, Week 114): 13 Fold Change | Susceptibility, Fold Change in EC50 relative to reference strain ([3]; Subject 362, Week 0.1): 1.3 Fold Change | Susceptibility, Fold Change in EC50 relative to reference strain ([3]; Subject 362, Week 108): 12 Fold Change | median decrease in susceptibility from baseline ([3]; on emergence of I50L, n=15): 9.6 fold | FC ([3]; same isolate prior to developing the I50L change): 0.2 | FC ([3]; the one I50L isolate with lowest FC, on treatment): 1.5 | FC ([3]; three on treatment isolates containing I50I/L mixtures): below 1 | median FC ([3]; viruses containing the I50L substitution, FIG. 3): selective resistance | Virologic Failures (%) [4]: 17% | Virologic Failures, number [4]: 69 | EC50 ([5]; Human immunodeficiency virus 1, NL43, MT2, LAI A71V, read-out: ATV phenotype (value before parenthesis, EC50)): 3.7 ± 0.9 nM | EC50 ([5]; Human immunodeficiency virus 1, NL43, MT2, LAI Control, read-out: ATV phenotype (value before parenthesis, EC50)): 1.5 ± 0.3 nM | EC50 ([5]; Human immunodeficiency virus 1, NL43, MT2, LAI I50L, read-out: ATV phenotype (value before parenthesis, EC50)): 8.2 ± 3.4 nM | EC50 ([5]; Human immunodeficiency virus 1, NL43, MT2, NL4-3 020: I50L + M46I, L63P, H69Q, V77I, I93L, read-out: ATV phenotype (value before parenthesis, EC50)): 1.9 ± 0.5 nM | EC50 ([5]; Human immunodeficiency virus 1, NL43, MT2, NL4-3 100A: I50L + L63P, K70R, A71V, N88S, read-out: ATV phenotype (value before parenthesis, EC50)): 22.9 ± 6.4 nM | EC50 ([5]; Human immunodeficiency virus 1, NL43, MT2, NL4-3 100B: I50L + L63P, K70R, A71V, G73S, read-out: ATV phenotype (value before parenthesis, EC50)): 27.8 ± 2.8 nM | EC50 ([5]; Human immunodeficiency virus 1, NL43, MT2, NL4-3 296: I50L + K45R, L63P, A71V, G73S, V77I, I93L, read-out: ATV phenotype (value before parenthesis, EC50)): 7.1 ± 1.6 nM | EC50 ([5]; Human immunodeficiency virus 1, NL43, MT2, NL4-3 347: I50L + I13V, E35D, M36I, M46L, L63P, A71V, V82A, read-out: ATV phenotype (value before parenthesis, EC50)): 12.1 ± 1.4 nM | EC50 ([5]; Human immunodeficiency virus 1, NL43, MT2, NL4-3 372: I50L + L10I, L63P, G73S, I93L, read-out: ATV phenotype (value before parenthesis, EC50)): 9.8 ± 0.7 nM | EC50 ([5]; Human immunodeficiency virus 1, NL43, MT2, NL4-3 398: I50L + E35D, M36L, N37S, R41K, R57K, I62V, L63P, I93L, read-out: ATV phenotype (value before parenthesis, EC50)): 9 ± 1.5 nM | EC50 ([5]; Human immunodeficiency virus 1, NL43, MT2, NL4-3 450: I50L + L19I, R41K, A71V, T74S, read-out: ATV phenotype (value before parenthesis, EC50)): 4.4 ± 2.9 nM | EC50 ([5]; Human immunodeficiency virus 1, NL43, MT2, NL4-3 A71V, read-out: ATV phenotype (value before parenthesis, EC50)): 2.4 ± 0.04 nM | EC50 ([5]; Human immunodeficiency virus 1, NL43, MT2, NL4-3 Control (first group), read-out: ATV phenotype (value before parenthesis, EC50)): 0.8 ± 0.3 nM | EC50 ([5]; Human immunodeficiency virus 1, NL43, MT2, NL4-3 I50L + A71V, read-out: ATV phenotype (value before parenthesis, EC50)): 8.6 ± 1.9 nM | EC50 ([5]; Human immunodeficiency virus 1, NL43, MT2, NL4-3 I50L, read-out: ATV phenotype (value before parenthesis, EC50)): 3.1 ± 1.6 nM | EC50 ([5]; Human immunodeficiency virus 1, NL43, MT2, RF A71V, read-out: ATV phenotype (value before parenthesis, EC50)): 0.6 ± 0.2 nM | EC50 ([5]; Human immunodeficiency virus 1, NL43, MT2, RF Control, read-out: ATV phenotype (value before parenthesis, EC50)): 0.7 ± 0.1 nM | EC50 ([5]; Human immunodeficiency virus 1, NL43, MT2, RF I50L + A71V, read-out: ATV phenotype (value before parenthesis, EC50)): 4 ± 0.3 nM | EC50 ([5]; Human immunodeficiency virus 1, NL43, MT2, RF I50L, read-out: ATV phenotype (value before parenthesis, EC50)): 2.2 ± 1.8 nM | EC50 ([5]; Human immunodeficiency virus 1, NL43, MT2, read-out: ATV phenotype (value before parenthesis, EC50), LAI 150L + A71V): 15.1 ± 4.7 nM | EC50 ([5]; Human immunodeficiency virus 1, NL43, MT2, read-out: ATV phenotype (value before parenthesis, EC50), NL4-3 Control (second group, site-directed mutants)): 1.5 ± 0.1 nM | ATV (Fold Change) ([5]; LAI 150L + A71V): 10 Fold Change | ATV (Fold Change) ([5]; LAI A71V): 2.4 Fold Change | ATV (Fold Change) ([5]; LAI I50L): 5.4 Fold Change | ATV (Fold Change) ([5]; NL4-3 020: I50L + M46I, L63P, H69Q, V77I, I93L): 2.5 Fold Change | ATV (Fold Change) ([5]; NL4-3 100A: I50L + L63P, K70R, A71V, N88S): 31 Fold Change | ATV (Fold Change) ([5]; NL4-3 100B: I50L + L63P, K70R, A71V, G73S): 37 Fold Change | ATV (Fold Change) ([5]; NL4-3 296: I50L + K45R, L63P, A71V, G73S, V77I, I93L): 9.5 Fold Change | ATV (Fold Change) ([5]; NL4-3 347: I50L + I13V, E35D, M36I, M46L, L63P, A71V, V82A): 16 Fold Change | ATV (Fold Change) ([5]; NL4-3 372: I50L + L10I, L63P, G73S, I93L): 13 Fold Change | ATV (Fold Change) ([5]; NL4-3 398: I50L + E35D, M36L, N37S, R41K, R57K, I62V, L63P, I93L): 12 Fold Change | ATV (Fold Change) ([5]; NL4-3 450: I50L + L19I, R41K, A71V, T74S): 5.9 Fold Change | ATV (Fold Change) ([5]; NL4-3 A71V): 1.6 Fold Change | ATV (Fold Change) ([5]; NL4-3 I50L): 2.1 Fold Change | ATV (Fold Change) ([5]; NL4-3 I50L + A71V): 5.9 Fold Change | ATV (Fold Change) ([5]; RF A71V): 0.9 Fold Change | ATV (Fold Change) ([5]; RF I50L): 3 Fold Change | ATV (Fold Change) ([5]; RF I50L + A71V): 5.7 Fold Change | decrease in susceptibility ([5]; {}): 2.1-5.4 fold
